Measured values from US12559454B2, “Benzenesulfonamide derivatives and uses thereof” (2692372 Ontario, Inc., priority 2019, dated 2026).

Experiments:
BTK [1] = target: T1, BTK (Homo sapiens, UniProt Q06187); experiment: BTK irreversible inhibition, enzyme kinetic analysis; format: biochemical; details: 0.1 nM BTK, 500 μM ATP
Description: One of ordinary skill in the art will recognize that this is consistent with the irreversible inhibition of BTK by compound I-A1.
One of ordinary skill in the art will recognize that this is consistent with the irreversible inhibition of BTK by compound I-A6.
One of ordinary skill in the art will recognize that this is consistent with the irreversible inhibition of BTK by compound 3A-2.
The shift of IC50 to a lower value after pre-incubation of the enzyme indicates to one of ordinary skill in the art that a significant portion of the enzyme was inhibited irreversibly during the incubation period.

BTK [2] = target: T1, BTK; experiment: In vitro BTK inhibition (no preincubation); format: biochemical
[3] = target: T2, His-tagged BTK kinase domain (Homo sapiens, UniProt Q06187); experiment: Mass spectral analysis of tryptic digest of BTK kinase domain; format: binding; details: 10 μM BTK KD, 10 μM compound, 45 min; for C481 covalent modification: tryptic peptide 467-487
T2 construct: Intact His-tagged BTK kinase domain (SOURCE)(10 μM) was incubated
Description: A protein kinase that is inhibited by compound and/or pharmaceutically acceptable salt of the present disclosure may be subjected to mass spectral analysis to assess the formation of permanent, irreversible covalent adducts. […] Such methods identify permanent, irreversible covalent protein adducts by observing a mass peak that corresponds to the mass of a control sample plus the mass of an irreversible adduct.
After the incubation time, the reactions were quenched by acetone precipitation and the pellet was re-dissolved in 8 M Urea. […] The BTK protein band was then excised and subjected to an in-gel trypsin digest by reducing the protein (5 mM DTT), alkylating the thiols with iodoacetamide (15 mM), and then incubating the protein gel band with trypsin in a 37 C water bath (4 hours). The tryptic digestion was then quenched by the addition of trifluoroacetic acid, and peptides were removed from the gel band by sonicating with increasing amounts of acetonitrile (0%, 30%, & 60%). Peptides were then purified using C18 ziptips, spotted on the MALDI target plate with α-cyano-4-hydroxycinnamic acid as the desorption matrix (10 mg/mL in 0.10% TFA:Acetonitrile 50:50), and analyzed in reflectron mode.

K562 cells = experiment: CellTiter-Blue cell viability, K562; format: cell-based; details: Homo sapiens, 72 hrs exposure
Description: (§1) Anti-cancer efficacy of exemplary compounds of this application was assessed in vitro in different cancer cell lines. Cell viability was examined following treatment at various concentration of inhibitor (0.097656-50 μM) using a cell Titer-Blue cell viability assay. 1×10^4 cells (NHF, MV4-11, K562 and MOLM-13 cells)/well were plated in 96-well assay plates in culture medium. All cells were grown in DMEM, IMDM and RPMI-1640 supplemented with 10% FBS. After 24 hrs, test compounds and vehicle controls were added to appropriate wells so the final volume was 100 μl in each well. The cells were cultured for the desired test exposure period (72 hrs) at 37° C. and 5% CO2. The assay plates were removed from 37° C. incubator and 20 μl/well of CellTiter-Blue® Reagent was added. The plates were incubated using standard cell culture conditions for 1-4 hours and the plates were shaken for 10 seconds and record fluorescence at 560/590 nm.

MV4-11 cells = experiment: CellTiter-Blue cell viability, MV-4-11; format: cell-based; details: Homo sapiens, 72 hrs exposure
Description: as §1

MOLM-13 cells = experiment: CellTiter-Blue cell viability, MOLM-13; format: cell-based; details: Homo sapiens, 72 hrs exposure
Description: as §1

tubulin = experiment: Tubulin polymerization assay; format: biochemical; details: for % Inhibition: Vmax normalized to tubulin only control; for % D.O.P.: degree of polymerization relative to tubulin control
Description: A96-well half-area clear flat-bottom microplate (Corning® #3697) was pre-heated in a plate reader (Cytation 3, BioTek) at 37° C. for 15 minutes prior to the start of each assay. Tubulin polymerization buffer (80 mM PIPES pH 6.9, 2 mM MgCl2, 0.5 mM EGTA, 15% glycerol, 1 mM GTP) was prepared from stock solutions and placed on ice. Inhibitors were prepared to M concentrations in buffer (80 mM PIPES pH 6.9, 2 mM MgCl2, 0.5 mM EGTA, 5% DMSO) from DMSO stock solutions. After the assay plate was pre-warmed, 10 μL of inhibitor or buffer control was added to selected wells. Every assay contained a tubulin only negative control for normalization of data, and a batabulin positive control. The assay plate was incubated at 37° C. for 3 minutes. During this time, a frozen aliquot of tubulin (10 mg/mL) in buffer (80 mM PIPES pH 6.9, 2 mM MgCl2, 0.5 mM EGTA) was defrosted by placing in a room temperature water bath. Once thawed, 200 μL of tubulin was mixed with 420 μL ice cold tubulin polymerization buffer (3 mg/mL tubulin in 80 mM PIPES, pH 6.9, 2 mM MgCl2, 0.5 mM EGTA, 1 mM GTP, 10.2% glycerol). To a 96-well plate on ice, aliquots of 100 μL tubulin was added to each well. From this plate, 90 μL of tubulin was immediately pipetted into all sample wells of the warmed assay plate using a multi-channel pipette. The assay plate was immediately put in the reader at 37° C. and shook for 5 s with orbital shaking at medium speed. The reader recorded the absorbance at 340 nm every 15 s for 30 min.
The resulting absorbance curves were normalized by subtracting each data point by the absorbance at time 0.
The largest change in absorbance over the assay time course was also recorded and related to the tubulin control as the % degree of polymerization (% D.O.P.).

T2 sequence (Q06187 402-655 limits assumed): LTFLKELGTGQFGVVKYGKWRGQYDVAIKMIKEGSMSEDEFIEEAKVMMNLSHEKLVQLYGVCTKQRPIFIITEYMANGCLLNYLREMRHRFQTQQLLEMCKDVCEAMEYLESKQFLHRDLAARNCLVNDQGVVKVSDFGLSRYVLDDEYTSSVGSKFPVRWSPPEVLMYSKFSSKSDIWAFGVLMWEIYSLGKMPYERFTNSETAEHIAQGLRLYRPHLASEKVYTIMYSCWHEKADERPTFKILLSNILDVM
T1 sequence (Q06187 whole entry, species assumed): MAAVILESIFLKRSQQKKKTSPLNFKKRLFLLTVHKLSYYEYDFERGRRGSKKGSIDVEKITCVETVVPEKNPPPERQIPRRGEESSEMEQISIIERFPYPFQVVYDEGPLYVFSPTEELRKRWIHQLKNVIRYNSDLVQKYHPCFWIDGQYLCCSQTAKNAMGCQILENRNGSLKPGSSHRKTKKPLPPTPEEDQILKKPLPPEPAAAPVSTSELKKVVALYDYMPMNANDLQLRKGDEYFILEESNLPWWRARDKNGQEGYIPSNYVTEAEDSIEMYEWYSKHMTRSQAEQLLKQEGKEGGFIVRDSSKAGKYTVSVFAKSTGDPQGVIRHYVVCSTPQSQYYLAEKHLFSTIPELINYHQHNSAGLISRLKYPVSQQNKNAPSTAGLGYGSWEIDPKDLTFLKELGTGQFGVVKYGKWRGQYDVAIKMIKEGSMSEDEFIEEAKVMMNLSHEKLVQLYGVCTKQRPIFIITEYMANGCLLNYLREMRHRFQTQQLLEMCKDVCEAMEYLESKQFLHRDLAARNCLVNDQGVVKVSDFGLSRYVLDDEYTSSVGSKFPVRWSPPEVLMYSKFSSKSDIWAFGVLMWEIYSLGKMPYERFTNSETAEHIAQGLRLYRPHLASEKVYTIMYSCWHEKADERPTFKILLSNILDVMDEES

Question: With `Nc1ncnc2c1c(-c1ccc(Oc3ccccc3)cc1)nn2[C@@H]1CCCN(S(=O)(=O)c2c(F)c(F)c(F)c(F)c2OCC(F)(F)F)C1` [Compound 3A-2, (R)-3-(4-phenoxyphenyl)-1-(1-((2,3,4,5-tetrafluoro-6-(2,2,2 trifluoroethoxy)phenyl)sulfonyl)piperidin-3-yl)-1H-pyrazolo[3,4-d]pyrimidin-4-amine] as the compound, how does the “inhibition profile by enzyme kinetic analysis” value (BTK [1]) read?
Answer: The value was “time-dependent inhibition”.

Question: What about the kinact (BTK [1]; saturation kinetics) of the same compound?
Answer: The kinact was 0.00169 s⁻¹.

Question: What about the Ki (BTK [1]; saturation kinetics of irreversible inhibition) of the same compound?
Answer: Its Ki is 0.12 µM.

Question: What about the IC50 (BTK [2]; Table 17) of the same compound?
Answer: Its IC50 is 0.1 to 1 µM.

Question: `Nc1ncnc2c1c(-c1ccc(Oc3ccccc3)cc1)nn2[C@@H]1CCN(S(=O)(=O)c2cc(F)c(F)c(F)c2F)C1` [Compound 3A-4, 3-(4-phenoxyphenyl)-1-[(3R)-1-(2,3,4,5-tetrafluorophenyl)sulfonylpyrrolidin-3-yl]pyrazolo[3,4-d]pyrimidin-4-amine] was tested. Which C481 covalent modification [3] did it give?
Answer: Its C481 covalent modification is “covalent modification and ✓”.

Question: Which results are given for `Nc1ncnc2c1c(-c1ccc(Oc3ccccc3)cc1)nn2CCNS(=O)(=O)c1c(F)c(F)c(F)c(F)c1F` [Compound 3A-9, N-[2-[4-amino-3-(4-phenoxyphenyl)pyrazolo[3,4-d]pyrimidin-1-yl]ethyl]-2,3,4,5,6-pentafluoro-benzenesulfonamide]?
Answer: C481 covalent modification [3]: covalent modification and ✓; C527 covalent modification ([3]; tryptic peptide 526-536): covalent modification and ✓; IC50 (BTK [2]; Table 18): 0.0001 to 0.01 µM

Question: For `Nc1ncnc2c1c(-c1ccc(Oc3ccccc3)cc1)nn2CCCNS(=O)(=O)c1c(F)c(F)c(F)c(F)c1F` [Compound 3A-10, N-(3-(4-amino-3-(4-phenoxyphenyl)-1H-pyrazolo[3,4-d]pyrimidin-1-yl)propyl)-2,3,4,5,6-pentafluorobenzenesulfonamide], which IC50 (BTK [2]; Table 17) is on record?
Answer: The IC50 was 0.0001 to 0.01 µM.

Question: For `Nc1ncnc2c1c(-c1ccc(Oc3ccccc3)cc1)nn2C1CN(S(=O)(=O)c2c(F)c(F)c(F)c(F)c2F)C1` [Compound 3A-24, 1-(1-((perfluorophenyl)sulfonyl)azetidin-3-yl)-3-(4-phenoxyphenyl)-1H-pyrazolo[3,4-d]pyrimidin-4-amine], which IC50 (BTK [2]; Table 17) is on record?
Answer: The IC50 was 0.0001 to 0.01 µM.

Question: For `COCCOc1ccc(Nc2ncc(F)c(NCCNS(=O)(=O)c3c(F)c(F)c(F)c(F)c3F)n2)cc1` [Compound 3A-37, 2,3,4,5,6-pentafluoro-N-(2-((5-fluoro-2-((4-(2-methoxyethoxy)phenyl)amino)pyrimidin-4-yl)amino)ethyl)benzenesulfonamide], which C481 covalent modification [3] is on record?
Answer: Its C481 covalent modification is “covalent modification and ✓”.

Question: Which C481 covalent modification [3] does the source give for `COCCOc1ccc(Nc2ncc(F)c(Nc3ccc(NS(=O)(=O)c4c(F)c(F)c(F)c(F)c4F)cc3)n2)cc1` [Compound 3A-38, 2,3,4,5,6-pentafluoro-N-(4-((5-fluoro-2-((4-(2-methoxyethoxy)phenyl)amino)pyrimidin-4-yl)amino)phenyl)benzenesulfonamide] here?
Answer: Its C481 covalent modification is “covalent modification and ✓”.

Question: Which IC50 (K562 cells) does the source give for `COc1ccc(NS(=O)(=O)c2c(F)c(F)c(F)c(F)c2OC2COC2)cc1F` [Compound I-72, 2,3,4,5-tetrafluoro-N-(3-fluoro-4-methoxyphenyl)-6-(oxetan-3-yloxy)benzenesulfonamide] here?
Answer: The IC50 was over 10 µM.

Question: What about the IC50 (MV4-11 cells) of the same compound?
Answer: The IC50 was 0.1 to 1 µM.

Question: What about the IC50 (MOLM-13 cells) of the same compound?
Answer: Its IC50 is over 10 µM.

Question: And the “% Inhibition” value (tubulin)?
Answer: Its value is “A (<10%)”.

Question: What about the “% D.O.P.” value (tubulin) of the same compound?
Answer: The value was “A (>85%)”.

Question: What does the source list for `COc1ccc(NS(=O)(=O)c2c(F)c(F)c(F)c(F)c2OCC2COC2)cc1F` [Compound I-73, 2,3,4,5-tetrafluoro-N-(3-fluoro-4-methoxyphenyl)-6-(oxetan-3-ylmethoxy)benzenesulfonamide]?
Answer: IC50 (K562 cells): 1 to 10 µM; IC50 (MV4-11 cells): 0.1 to 1 µM; IC50 (MOLM-13 cells): 1 to 10 µM; % Inhibition (tubulin): A (<10%); % D.O.P. (tubulin): A (>85%)

Question: How did the IC50 (K562 cells) turn out when `COc1ccc(NS(=O)(=O)c2c(F)c(F)c(F)c(F)c2OCC(C)(C)C)cc1F` [Compound I-74, 2,3,4,5-tetrafluoro-N-(3-fluoro-4-methoxyphenyl)-6-(neopentyloxy)benzenesulfonamide] was run?
Answer: Its IC50 is over 10 µM.

Question: What about the IC50 (MV4-11 cells) of the same compound?
Answer: Its IC50 is over 10 µM.

Question: And the IC50 (MOLM-13 cells)?
Answer: The IC50 was over 10 µM.

Question: What about the “% Inhibition” value (tubulin) of the same compound?
Answer: The value was “A (<10%)”.

Question: And the “% D.O.P.” value (tubulin)?
Answer: The value was “A (>85%)”.

Question: Which results are given for `COc1ccc(NS(=O)(=O)c2c(F)c(F)c(F)c(F)c2Oc2ccc(O)cc2)cc1F` [Compound I-77, 2,3,4,5-tetrafluoro-N-(3-fluoro-4-methoxyphenyl)-6-(4-hydroxyphenoxy)benzenesulfonamide]?
Answer: IC50 (K562 cells): > 10 µM; IC50 (MV4-11 cells): 1 to 10 µM; IC50 (MOLM-13 cells): > 10 µM; % Inhibition (tubulin): A (<10%); % D.O.P. (tubulin): A (>85%)

Question: Which results are given for `COc1ccc(NS(=O)(=O)c2c(F)c(F)c(F)c(F)c2Oc2ccc(OC)c(F)c2)cc1F` [Compound I-78, 2,3,4,5-tetrafluoro-6-(3-fluoro-4-methoxyphenoxy)-N-(3-fluoro-4-methoxyphenyl)benzenesulfonamide]?
Answer: IC50 (K562 cells): 1 to 10 µM; IC50 (MV4-11 cells): 1 to 10 µM; IC50 (MOLM-13 cells): 1 to 10 µM; % Inhibition (tubulin): B (10-20%); % D.O.P. (tubulin): B (< 85%)

Question: `COc1ccc(Oc2c(F)c(F)c(F)c(F)c2S(=O)(=O)Nc2ccc(OC)c(F)c2)cc1` [Compound I-79, 2,3,4,5-tetrafluoro-N-(3-fluoro-4-methoxyphenyl)-6-(4-methoxyphenoxy)benzenesulfonamide] was tested. Which IC50 (K562 cells) did it give?
Answer: The IC50 was over 10 µM.

Question: And the IC50 (MV4-11 cells)?
Answer: The IC50 was 1 to 10 µM.

Question: And the IC50 (MOLM-13 cells)?
Answer: Its IC50 is 1 to 10 µM.

Question: And the “% Inhibition” value (tubulin)?
Answer: Its value is “A (<10%)”.

Question: What about the “% D.O.P.” value (tubulin) of the same compound?
Answer: Its value is “A (>85%)”.

Question: What does the source list for `COc1ccc(NS(=O)(=O)c2c(F)c(F)c(F)c(F)c2OCF)cc1F` [Compound I-83, 2,3,4,5-tetrafluoro-N-(3-fluoro-4-methoxyphenyl)-6-(fluoromethoxy)benzenesulfonamide]?
Answer: IC50 (K562 cells): ≤ 0.1 µM; IC50 (MV4-11 cells): ≤ 0.1 µM; IC50 (MOLM-13 cells): ≤ 0.1 µM; % Inhibition (tubulin): C (>20%); % D.O.P. (tubulin): B (< 85%)

Question: What does the source list for `COc1ccc(NS(=O)(=O)c2c(F)c(F)c(F)c(F)c2C(=O)C(F)(F)F)cc1F` [Compound I-90, 2,3,4,5-tetrafluoro-N-(3-fluoro-4-methoxyphenyl)-6-(2,2,2-trifluoroacetyl)benzenesulfonamide]?
Answer: IC50 (K562 cells): > 10 µM; IC50 (MV4-11 cells): 1 to 10 µM; IC50 (MOLM-13 cells): 1 to 10 µM; % Inhibition (tubulin): A (<10%); % D.O.P. (tubulin): A (>85%)

Question: What does the source list for `COc1ccc(NS(=O)(=O)c2cc(F)c(F)c(F)c2F)cc1F` [Compound I-93, 2,3,4,5-tetrafluoro-N-(3-fluoro-4-methoxyphenyl)benzenesulfonamide]?
Answer: IC50 (K562 cells): ≤ 0.1 µM; IC50 (MV4-11 cells): ≤ 0.1 µM; IC50 (MOLM-13 cells): 0.1 to 1 µM; % Inhibition (tubulin): C (>20%); % D.O.P. (tubulin): B (< 85%)
